# Experimental data taken from patent publication US8778987B2, “Use of 4-hydroxychalcone derivatives for masking an unpleasant taste” (Symrise AG, priority 2008, dated 2014).
# Tests used:
# Type in all cases: in vivo
# [1] = tested on: bitter impression of aqueous caffeine solution; test: Reducing bitterness of a bitter substance solution, rated by a panel of experts (caffeine); conditions: 500 ppm caffeine; for Bitter impression (1-10) with: error = 95% confidence range
# Procedure: (§1) In order to quantify the reduction in the bitter impression, the bitterness of an aqueous bitter substance solution and a sample containing the same quantity of bitter substance and a varying quantity of the exemplary compound, was determined by a panel of experts (rating 0 [not bitter] to 10 [extremely bitter]). Evaluation took place by calculating the reduction (in %) in the bitter impression from the average values of the assessments of the bitter substance solution or the solutions containing bitter substance and exemplary compound. […] (2,4-DHB) was used as a comparison from U.S. Pat. No. 5,643,941.
# [2] = tested on: bitter impression of aqueous salicin solution; test: Reducing bitterness of a bitter substance solution, rated by a panel of experts (salicin); conditions: 30 ppm substance, 250 ppm salicin
# Procedure: as §1
# [3] = tested on: taste impressions of meat stock with 0.4 wt. % sodium chloride and 0.4 wt. % potassium chloride; test: Reduction in unpleasant taste impressions of potassium chloride-containing meat stock (triangle difference testing); conditions: 30 ppm
# Procedure: A fat- and common salt-free meat stock is prepared with 0.4 wt. % sodium chloride and 0.4 wt. % potassium chloride (in each case relative to total weight) (comparison solution A). The same solution is prepared again and a quantity of phloretin (compound 4 from Example 1) is added. Solution A is served up to the testers once with the designation “standard solution”, and at the same time solution A and solution B are served up as “test solution 1” or “test solution 2” in a random order unknown to the respective tester (i.e. solutions A and B may have different designations for different testers; each tester has to test three solutions). In a first test phase, the testers are asked whether one of the three solutions tastes different from the other two (triangle difference testing). If the response to this question is “No”, the test is stopped for that tester. If the response to this question is “Yes”, the tester has to quantify the flavor qualities, listed below, of “test solution 1” or “test solution 2” deviating from the “standard solution” (relative to the “standard solution”, 0 flavor quality identical to the standard, −4 very much weaker than the standard, +4 very much stronger than the standard). Taking as basis the results from all the testers, the average of all deviations from the “standard solution” is calculated for the individual flavor qualities.
# [4] = tested on: bitter impression of aqueous quinine hydrochloride solution; test: Reducing bitterness of a bitter substance solution, rated by a panel of experts (quinine hydrochloride); conditions: 30 ppm substance, 5 ppm quinine hydrochloride
# Procedure: as §1
SMILES,% reduction in bitter impression ([1]; 100 ppm substance),"Tester positive (number of testers who were able to identify masking) ([1]; 100 ppm substance, 15 testers total)",Bitter impression (1-10) with ([1]; 100 ppm substance),% reduction in bitter impression [2],Tester positive (number of testers who were able to identify masking) ([2]; 15 testers total),Bitter impression (1-10) with ([2]; error = 95% confidence range),"Positive testers ([3]; of 21 testers, triangle difference testing)","Aromaticity, average deviation from standard solution ([3]; scale −4 to +4)","Bitter, average deviation from standard solution ([3]; scale −4 to +4)","Mouth fullness, average deviation from standard solution ([3]; scale −4 to +4)","Sour, average deviation from standard solution ([3]; scale −4 to +4)","Sweet, average deviation from standard solution ([3]; scale −4 to +4)","Salty, average deviation from standard solution ([3]; scale −4 very much weaker to +4 very much stronger than the standard)",% reduction in bitter impression [4],Tester positive (number of testers who were able to identify masking) ([4]; 15 testers total),Bitter impression (1-10) with ([4]; error = 95% confidence range),% reduction in bitter impression ([1]; 50 ppm substance),Tester positive (number of testers who were able to identify masking) ([1]; 50 ppm substance),Bitter impression (1-10) with ([1]; 50 ppm substance)
"O=C(O)c1ccc(O)cc1O [2,4-DHB, 2,4-dihydroxybenzoic acid, reference compound]","3%, n.s.",9,5.0 ± 1.0,,,,,,,,,,,,,,,,
"O=C(CCc1ccc(O)cc1)c1c(O)cc(O)cc1O [Compound 4, 3-(4-hydroxyphenyl)-1-(2,4,6-trihydroxy-phenyl)propan-1-one]",,,,"18%, p < 0.1",10,6.0 ± 1.8,16 (p < 0.05),−0.1,−0.4,0.3,0.1,0.9,−0.7,"25%, n.s.",10,2.0 ± 1.4,"28%, p < 0.05",13,3.9 ± 1.8
